Patent publication US9650348B2, “Triazines with suitable spacers for treatment and/or prevention of HIV infections” (Universiteit Antwerpen, priority 2012, dated 2017)
Read-outs that look alike come from different tables or passages of the source.

What was measured:
HIV-1 BaL = experiment: TZM-bl antiviral assay, wild type HIV-1 Ba-L; format: cell-based; settings: Human immunodeficiency virus 1, BAL, read-out: Antiviral activity-wild type viruses EC50 TZM-bI Ba-L
Experimental: (§1) The JC53-BL cell line, also known as the TZM-bl cell line (NIH AIDS Research and Reference Reagent Program, Germantown, USA), was used for the evaluation of anti-HIV activity. TZM-bl cells were cultured in Dulbecco's […] (DMEM) (Lonza) containing 10% heat-inactivated FBS and 50 μg gentamycin/mL at 37° C. in a humidified 5% CO2, 95% air environment. Twice a week the cells were treated with 0.25% trypsin-1 mM EDTA (Lonza) for 10 minutes. The resulting cell suspension was washed with an equivalent amount of TZM-bl medium and subsequently seeded in a T75 culture flask (Greiner Bio-One, Germany) at 10^6 cells in 20 mL medium.
(§2) The antiviral activity of the newly designed compounds was measured by pre-incubating ten thousand TZM-bl cells (at 10^5 cells/mL in culture medium supplemented with 30 μg/mL DEAE dextran) in a 96-well plate for 30 minutes at 37° C., 5% CO2 in the presence or absence of serial dilutions of the respective compound. Subsequently, 200 TCID50 of HIV-1 BaL was added to each well and cultures were incubated for 48 hours before quantifying luciferase activity, using a TriStar LB941 luminometer (Berthold Technologies GmbH & Co. KG, Bad Wildbad, Germany). Each condition was evaluated in triplicate wells and in at least two independent experiments. The antiviral activity of the compound was expressed as the percentage of viral inhibition compared to the untreated controls and subsequently plotted against the compound concentration.
(§3) The target compounds are evaluated for their anti-HIV-1 activity and cytotoxicity. In a primary screen, the anti-HIV activity against the laboratory strain Ba-L and against a primary subtype C isolate was determined in the TZM-bl cell line. Cellular toxicity on TZM-bl cells was evaluated using WST-1. […] In addition, the activity against NNRTI-resistant viruses (V106A, Y181C, L100I+K103N, L100I+E138K+T369I and K101E+K103N+V108VI+V179M+Y181C+E138Q) was tested. Diarylpyrimidines (DAPY) TMC120, TMC125 and TMC278 were used as reference compounds.

VI829 = experiment: TZM-bl antiviral assay, wild type VI829 (primary subtype C isolate); format: cell-based, HIV-1; settings: read-out: Antiviral activity-wild type viruses EC50 TZM-bI VI829
Experimental: as §1, §2, §3

HIV-1 Ba-L [1] = experiment: Antiviral activity in peripheral blood mononuclear cells (PBMC), Ba-L; format: cell-based; settings: Human immunodeficiency virus 1, BAL, Ba-L wild type, read-out: Antiviral activity-wild type viruses EC50 PBMC Ba-L
HIV-1 Ba-L [2] = experiment: Antiviral activity in dendritic cells / CD4+ T lymphocytes (DC/T4), Ba-L; format: cell-based; settings: Human immunodeficiency virus 1, BAL; DC/T4, Ba-L wild type; read-out: Antiviral activity-wild type viruses EC50 DC/T4 Ba-L
Ba-L V106A = experiment: Antiviral activity, NNRTI-resistant virus V106A; format: cell-based, HIV-1; settings: for FC (V106A): Ba-L V106A; for EC50: Human immunodeficiency virus 1, BAL, read-out: Antiviral activity-NNRTI-resistant viruses EC50 Ba-L V106A
Experimental: as §3

VI829 Y181C = experiment: Antiviral activity, NNRTI-resistant virus Y181C; format: cell-based, HIV-1; settings: for EC50: Human immunodeficiency virus 1, read-out: Antiviral activity-NNRTI-resistant viruses EC50 VI829 Y181C; for FC (Y181C): VI829 Y181C
Experimental: as §3

VI829 L100I+K103N = experiment: Antiviral activity, NNRTI-resistant virus L100I+K103N; format: cell-based, HIV-1; settings: for EC50: Human immunodeficiency virus 1, read-out: Antiviral activity-NNRTI-resistant viruses EC50 VI829 L100I+K103N; for FC (L100I+K103N): VI829 L100I+K103N
Experimental: as §3

[3] = system: Ba-L K101E + K103N + V108VI + V179M + Y181C + E138Q; experiment: Antiviral activity, NNRTI-resistant virus K101E+K103N+V108VI+V179M+Y181C+E138Q; format: cell-based, HIV-1; settings: for FC (*): Ba-L, * = K101E + K103N + V108VI + V179M + Y181C + E138Q; for EC50: Human immunodeficiency virus 1, BAL, read-out: Antiviral activity-NNRTI-resistant viruses EC50 Ba-L *
Experimental: (§4) The target compounds are evaluated for their anti-HIV-1 activity and cytotoxicity. In a primary screen, the anti-HIV activity against the laboratory strain Ba-L and against a primary subtype C isolate was determined in the TZM-bl cell line. Cellular toxicity on TZM-bl cells was evaluated using WST-1. Based on the primary screening results, the target compound was further evaluated for anti-HIV activity in different primary cells, including peripheral blood mononuclear cells, dendritic cells and CD4+ T lymphocytes. In addition, the activity against NNRTI-resistant viruses (V106A, Y181C, L100I+K103N, L100I+E138K+T369I and K101E+K103N+V108VI+V179M+Y181C+E138Q) was tested. Diarylpyrimidines (DAPY) TMC120, TMC125 and TMC278 were used as reference compounds.

VI829 L100I+E138K+T369I = experiment: Antiviral activity, NNRTI-resistant virus L100I+E138K+T369I; format: cell-based, HIV-1; settings: VI829, ** = L1001 + E138K + T3691
Experimental: as §4

in vitro = format: cell-based; settings: human, Cytotoxicity CC50 TZM-bI
Excerpt: (§5) The Water Soluble Tetrazolium-1 (WST-1) Cell Proliferation Assay is a colorimetric assay for the measurement of cell proliferation and viability. The assay is based on the cleavage of the tetrazolium salt WST-1 (4-[3-(4-iodophenyl)-2-(4-nitrophenyl)-2H-5-tetrazolio]-1,3-benzene disulfonate) to a formazan dye by a complex cellular mechanism. This bioreduction is largely dependent on the glycolytic production of NAD(P)H in viable cells. Therefore, the amount of formazan dye formed correlates directly to the number of viable cells in the culture, and can be quantified by measuring the absorbance at 450 nm in a multiwell plate reader. The greater the number of viable cells, the greater the amount of formazan dye produced following the addition of WST-1. Cytotoxicity of each compound was evaluated using this WST-1 viability assay, according to the manufacturer's instructions (Roche, Vilvoorde, Belgium).
(§6) Briefly, ten thousand TZM-bl cells were seeded in a 96-well plate and cultured for 2 days in the presence of a serial dilution of compound. After this 48 h exposure, Cell Proliferation Reagent, WST-1, was added and absorbance at 450 nm was quantified after 90 min using a microplate reader (BioRad, Tokio, Japan). Each compound was tested in three replicate wells and in at least two independent experiments.
as §3

[4] = Partition coefficient (Log D), octanol/PBS; format: physicochemical; settings: octanol/PBS pH 7.4
Experimental: 10 mM stock solution (in DMSO) was prepared.
200 μM solution (in DMSO) was prepared from 10 mM stock solution.
A set of 5-10 dilutions (in MeOH) of each compound were prepared from 200 μM solution to give final test concentrations between 1 nm and 2 μM.
MS tuning was done for each compound to find the daughter peaks using 500 nm solution.
Calibration curve was made for each compound to evaluate the linearity of our method.
Octanol was first saturated with PBS and PBS was first saturated with octanol
20 μl of a 10 mM DMSO stock solution was added to 990 μl of PBS (pH 7.4) and then 990 μl of octanol was added. The experiment was done in duplicate. After two hours of shaking at 37° C. and keeping at room temperature for 30 minutes the two layers were separated. After separation, octanol layer was diluted further with MeOH and compound was quantified in both layers by UPLC (waters). The samples were analysed in triplicate.
Where: • ConcINITIAL=Concentration of compound in the initial aqueous solution (PBS) • ConcFINAL=Concentration of compound in final aqueous phase (PBS) • Vaq=Volume of aqueous (PBS) • Voct=Volume of octanol

TZM-bl cells = experiment: in vitro; format: cell-based; settings: human, 48 h
Excerpt: as §5, §6, §3

[5] = Human immunodeficiency virus 1, TZM-bl cells, VI829 wild type

SMILES | EC50 (HIV-1 BaL; TZM-bl cells, Ba-L wild type) [nM] | EC50 (VI829; [5]) [nM] | EC50 (HIV-1 Ba-L [1]) [nM] | EC50 (HIV-1 Ba-L [2]) [nM] | FC (V106A) (Ba-L V106A) | EC50 (Ba-L V106A) [nM] | EC50 (VI829 Y181C) [nM] | FC (Y181C) (VI829 Y181C) | EC50 (VI829 L100I+K103N) [nM] | FC (L100I+K103N) (VI829 L100I+K103N) | FC (*) [3] | EC50 [3] [nM] | FC (**) (VI829 L100I+E138K+T369I) | CC50 at 48 h (in vitro) [nM] | logD at 2 h [4] | EC50 (HIV-1 BaL; TZM-bl) [nM] | EC50 (VI829; Human immunodeficiency virus 1, TZM-bl) [nM] | CC50 (TZM-bl cells) [nM]
Cc1cc(/C=C\C#N)cc(C)c1Nc1nc(N)nc(Nc2ccc(C#N)cc2)n1 [T3, (Z)-4-(4-amino-6-(4-(2-cyanovinyl)-2,6-dimethylphenylamino)-1,3,5-triazin-2-ylamino)benzonitrile] | 1.1 | 1.1 | 6.1 | 0.31 | 5 | 5.2 | 12 | 11 | 123 | 112 | 214 | 236 | 1266 | 30800 | – | – | – | –
Cc1cc(C=CC#N)cc(C)c1Nc1nc(Nc2ccc(C#N)cc2)nc(NC(C)C)n1 [T6, 4-((4-((4-(2-cyanovinyl)-2,6-dimethylphenyl)amino)-6-(isopropylamino)-1,3,5-triazin-2-yl)amino)benzonitrile] | 5 | 4.3 | 14 | 1.4 | 6 | 30 | 45 | 10 | 184 | 43 | 85 | 424 | 225 | 24700 | – | – | – | –
Cc1cc(/C=C/C#N)cc(C)c1Nc1nc(N)nc(Nc2ccc(C#N)cc2)n1 [T2, (E)-4-(4-amino-6-(4-(2-cyanovinyl)-2,6-dimethylphenylamino)-1,3,5-triazin-2-ylamino)benzonitrile] | 1.3 | 1.3 | 5.3 | 0.51 | 1 | 1.9 | 2.6 | 2 | 6.8 | 5.2 | 18 | 23 | 68 | 24500 | 3.8 | – | – | –
Cc1cc(C#N)cc(C)c1Oc1nc(Nc2ccc(C#N)cc2)nc(N)c1Br [TMC125, Etravirine, reference compound] | – | – | 5.9 | 1.8 | 1 | 1.6 | 7.6 | 5 | 14 | 9 | 51 | 76 | 62 | – | – | 1.5 | 1.5 | –
Cc1cc(/C=C/C#N)cc(C)c1Nc1ccnc(Nc2ccc(C#N)cc2)n1 [TMC278, Rilpivirine, reference compound] | 0.72 | 1 | 5.2 | 1.6 | 1 | 0.93 | 2.5 | 3 | 3.6 | 4 | 38 | 27 | 130 | < 10000 | 4 | – | – | 7740
Cc1cc(C=CC#N)cc(C)c1Nc1nc(N)nc(Nc2ccc(C#N)cc2)n1 [T1, 4-(4-amino-6-(4-(2-cyanovinyl)-2,6-dimethylphenylamino)-1,3,5-triazin-2-ylamino)benzonitrile] | 1.3 | 1.1 | 1.8 | 0.7 | 1 | 1.7 | 4 | 3 | 15 | 10 | 18 | 22.8 | 210 | 34600 | – | – | – | –
